The test system of one data set is HIV-1. Put plainly: Anti-HIV activity overall (cell-free and cell-associated assays) and antiviral index. It counts as cell-based. An excerpt: Table 2, Table 3 and Table 4 illustrate the anti-HIV-1 activities against the cell-free, cell-associated, and multidrug-resistant virus and sperm inhibiting properties of the selected compounds. In summary, the anti-HIV activity of 5′-substituted derivatives of FLT and AZT (5–18) was dependent on the nature of the 5′-substituent. […] None of the other esters were active against cell-associated virus. […] The difference in the activity of fatty acyl derivatives of FLT compared to each other and FLT may be due to their differences in the rate of uptake and intracellular hydrolysis.
By design, the ester moiety in the conjugates needs to be hydrolyzed to render parent nucleosides and fatty acids to produce anti-HIV activity. The anti-HIV activities of 5′-O-ether substituted FLT and AZT (3 and 4, Scheme 2) with a stable tetradecanyl (myristyl) group were compared with hydrolyzable 5′-O-ester substituted FLT and AZT (6 and 7).
(§1) Anti-HIV activities of the compounds were evaluated according to the previously reported procedure. In summary, the HeLa (Human cervical carcinoma: ATCC CCL-2.1) cell line was used to measure the inactivation of both the cell-free virus preparations and virus-infected cell preparations. The cells were plated in culture plates 24 h prior to each experiment. Cell-free viral preparations of HIV-1 strains IIIB (lymphocytotropic strain) and BaL (monocytotropic strain) were used for the cell-free assay. For the cell-associated assay, the SulT1 cells were infected with IIIB virus 5 days prior to the experiment. Cell-free virus and virus-infected cells were mixed with different compounds and diluted to make different concentrations. The mixture was further diluted with the buffer and added to the HeLa cells.

The subject of a further data set is sperm. The data set can be described thus: Spermicidal activity (sperm viability and motility). The note with it: abstract; versus N-9 positive control. It counts as cell-based. As for the experimental part:
In this study, several fatty acyl conjugates of nucleosides (5–8, 10–12, 15, and 16) were tested for their spermicidal activities. […] Detailed data analysis is available in the Supplementary Materials (Figure S2).
Human T lymphoblastoid cells (CCRF-CEM, ATCC No. CCL-119) were grown to 70% confluency in a culture medium. CCRF-CEM cells were incubated with 10 µM of the compounds and mixed with trypan blue (0.1%) to color the dead cells. The percentage of viability was calculated by using a Cellometer Auto T.4 (Nexcelom Bioscience). The cell viability against the vaginal cells (VK-2/E6E7) was conducted according to the previously reported procedure. The effect of conjugates on the sperm viability and mobility was evaluated as described previously.

Data set [1] concerns cell-associated HIV-1 IIIB (infected SulT1 cells). Put plainly: Cell-associated transmission assay (IIIB). It counts as cell-based. The note with it: Human immunodeficiency virus 1, IIIB, read-out: (CA) EC50, Table 2; cell-associated transmission assay (IIIB). As for the experimental part:
as §1

The nature of another data set: Cytotoxicity assay (MTS). Format: cell-based. As to conditions: human, HeLa cells (ATCC CCL-2.1), Table 2; MTS; 50% effective concentration.
Data set [2] in a line: pKa by dip-probe absorption spectroscopy (D-PAS). As to conditions: methanol-water co-solvent, Yasuda-Shedlovsky extrapolation. It counts as physicochemical. As for the experimental part: Physicochemical properties including pKa, Log D, and solubility were determined for 5 (as a model compound). […] It was not possible to measure the partition coefficient (Log P) of the fatty acyl derivatives of FLT and AZT in a standard n-octanol/water mixture because of the insolubility of the compounds in water. The cLog P value was calculated as 5.23 using ChemDraw. […] Since most of 5 is in its neutral form, the Log D value will correspond to the Log P value.
The pKa for 5 was determined using dip-probe absorption spectroscopy (D-PAS). The sample was initially titrated in a fast titration between pH 1.8 and pH 12.1 at concentrations of 33–49 µM under aqueous conditions. Precipitation of the sample from the solution was observed below approximately pH 11. The sample was subsequently titrated under methanol–water co-solvent conditions in two triple titrations from pH 12.2 to pH 3.7 at concentrations of 31–49 µM. The methanol ratio varied from to 25.5–50.8%. No precipitation of the sample from the solution was observed under this condition. The pKa was determined from the spectroscopic data by the Yasuda–Shedlovsky extrapolation of the individual obtained results.

The test system of data set [3] is HIV-1 94US3393IN (B-Wild Type). Put plainly: PBMC multi-round infection assay, clinical isolate 94US3393IN. As to conditions: Human immunodeficiency virus 1. Format: cell-based. Here is the method:
Based on a preliminary screening, conjugates 5 and 8 were evaluated for their ability to inhibit a drug-resistant virus in a peripheral blood mononuclear cell (PBMC) assay. In this assay, FLT, 5, and 8 were tested against B- and C-wild type and A-17 and 4755–5 multidrug-resistant (MDR) clinical isolates of HIV-1, where compounds were incubated with PBMCs for 6 h and then washed off before the addition of the virus and further culture for 7 days.
For the assessment of compounds against the wild type (WT; R5; clones = 94US3393IN [B subtype] and 98USMSC5016 [C subtype]) and drug-resistant (clones = 4755−5 and A17) HIV-1 clinical isolates, PHA-P stimulated cells from at least two normal donors were pooled, diluted in fresh media, and plated in the interior wells of a 96-well round-bottom microplate. Pooling PBMCs from more than one donor was used to minimize the variability observed between the individual donors, which results from the quantitative and qualitative differences in HIV infection and overall response to the PHA and IL-2 of primary lymphocyte populations. Each plate contained virus/cell control wells (cells + virus), experimental wells (drug + cells + virus), and compound control wells (drug + media, no cells, necessary for MTS monitoring of cytotoxicity). Test drug dilutions were prepared in microtiter tubes, and each concentration was placed in appropriate wells. Following the addition of the drug dilutions to the PBMCs, a predetermined dilution of virus stock was then placed in each test well (final MOI ≅ 0.1). Because HIV-1 is not cytopathic to PBMCs, the same assay plate can be used for both the antiviral efficacy and cytotoxicity measurements. Compounds were incubated with virus and cells in a 96-well format for 6 h. The cells were then washed by removing 75% of the medium (150 μL) and replacing it with 150 μL of fresh (no drug) medium. The plates were then centrifuged (∼200 g) for 10 min, after which 150 μL of the medium was removed, and an additional 150 μL of fresh medium was added to each well and further incubated for 6 days or until peak reverse transcriptase (RT) activity was detected. A microtiter plate-based RT reaction was utilized. Incorporated radioactivity (counts per minute, CPM) was quantified using standard liquid scintillation techniques. Compound IC50 (50%, inhibition of virus replication) was calculated using statistical software and regression analysis. A cellular uptake study was conducted for fluorescence conjugates 23 and 24 using a previously published procedure with minor modifications. All of the experiments were conducted in triplicate.

Data set [4] has as its system HIV-1 strain IIIB (lymphocytotropic strain). The data set can be described thus: Single-round infection assay, cell-free X4 virus (lymphocytotropic strain). The note with it: read-out: (X4) EC50, Table 2, single-round infection assay. Format: cell-based. Here is the method: as §1

Molecules are shown by their SMILES. Like-named read-outs stand apart in the source and are kept apart here.

As for `Cc1cn([C@H]2C[C@H](F)[C@@H](COC(=O)CCCCCCCCCCCN=[N+]=[N-])O2)c(=O)[nH]c1=O` [Compound 5, 3′-fluoro-2′,3′-dideoxy-5′-O-(12-azidododecanoyl)thymidine], the “anti-HIV activity (in words)” value with HIV-1 is “significant anti-HIV activity at noncytotoxic concentrations”. Moreover, the “antiviral index, times better than AZT” value with HIV-1 (versus AZT) was over 30 times. In addition, in the data set with HIV-1 (versus FLT), the “antiviral index, times better than FLT” value is recorded as over 4 times. Further, the “effect on sperm viability” value in the data set on sperm is “did not alter vaginal cell and sperm viability”. Also, the EC50 in data set [1] is 12.6 µM; in the data set “Cytotoxicity assay (MTS)” it was 1600 µM; in data set [4] (Human immunodeficiency virus 1, IIIB), at most 1 µM; in data set [4], 0.9 µM. In addition, in data set [2], the pKa was 9.67. In addition, the IC50 in data set [3] amounted to 0.0011 µM. In data set [3], this compound had an IC90 of 0.0064 µM.

A word on the EC50: it is the concentration giving half of the maximal effect. Usually pKa stands for the pH at which an ionisable group is half protonated. As usually defined, the IC50 is the concentration that gives 50% inhibition. One may read the IC90 as the concentration needed for an effect of 90%. Low values mean greater potency, high ones weaker potency.

The record behind these values is PMC9143043, “Synthesis and Biological Evaluation of 5′-O-Fatty Acyl Ester Derivatives of 3′-Fluoro-2′,3′-dideoxythymidine as Potential Anti-HIV Microbicides” (Molecules, 2022).
